# Biological target: T1, Drosophila topo II (Drosophila melanogaster, UniProt P15348)
# T1 construct: purchased Amersham
# T1 sequence (P15348 1-1447): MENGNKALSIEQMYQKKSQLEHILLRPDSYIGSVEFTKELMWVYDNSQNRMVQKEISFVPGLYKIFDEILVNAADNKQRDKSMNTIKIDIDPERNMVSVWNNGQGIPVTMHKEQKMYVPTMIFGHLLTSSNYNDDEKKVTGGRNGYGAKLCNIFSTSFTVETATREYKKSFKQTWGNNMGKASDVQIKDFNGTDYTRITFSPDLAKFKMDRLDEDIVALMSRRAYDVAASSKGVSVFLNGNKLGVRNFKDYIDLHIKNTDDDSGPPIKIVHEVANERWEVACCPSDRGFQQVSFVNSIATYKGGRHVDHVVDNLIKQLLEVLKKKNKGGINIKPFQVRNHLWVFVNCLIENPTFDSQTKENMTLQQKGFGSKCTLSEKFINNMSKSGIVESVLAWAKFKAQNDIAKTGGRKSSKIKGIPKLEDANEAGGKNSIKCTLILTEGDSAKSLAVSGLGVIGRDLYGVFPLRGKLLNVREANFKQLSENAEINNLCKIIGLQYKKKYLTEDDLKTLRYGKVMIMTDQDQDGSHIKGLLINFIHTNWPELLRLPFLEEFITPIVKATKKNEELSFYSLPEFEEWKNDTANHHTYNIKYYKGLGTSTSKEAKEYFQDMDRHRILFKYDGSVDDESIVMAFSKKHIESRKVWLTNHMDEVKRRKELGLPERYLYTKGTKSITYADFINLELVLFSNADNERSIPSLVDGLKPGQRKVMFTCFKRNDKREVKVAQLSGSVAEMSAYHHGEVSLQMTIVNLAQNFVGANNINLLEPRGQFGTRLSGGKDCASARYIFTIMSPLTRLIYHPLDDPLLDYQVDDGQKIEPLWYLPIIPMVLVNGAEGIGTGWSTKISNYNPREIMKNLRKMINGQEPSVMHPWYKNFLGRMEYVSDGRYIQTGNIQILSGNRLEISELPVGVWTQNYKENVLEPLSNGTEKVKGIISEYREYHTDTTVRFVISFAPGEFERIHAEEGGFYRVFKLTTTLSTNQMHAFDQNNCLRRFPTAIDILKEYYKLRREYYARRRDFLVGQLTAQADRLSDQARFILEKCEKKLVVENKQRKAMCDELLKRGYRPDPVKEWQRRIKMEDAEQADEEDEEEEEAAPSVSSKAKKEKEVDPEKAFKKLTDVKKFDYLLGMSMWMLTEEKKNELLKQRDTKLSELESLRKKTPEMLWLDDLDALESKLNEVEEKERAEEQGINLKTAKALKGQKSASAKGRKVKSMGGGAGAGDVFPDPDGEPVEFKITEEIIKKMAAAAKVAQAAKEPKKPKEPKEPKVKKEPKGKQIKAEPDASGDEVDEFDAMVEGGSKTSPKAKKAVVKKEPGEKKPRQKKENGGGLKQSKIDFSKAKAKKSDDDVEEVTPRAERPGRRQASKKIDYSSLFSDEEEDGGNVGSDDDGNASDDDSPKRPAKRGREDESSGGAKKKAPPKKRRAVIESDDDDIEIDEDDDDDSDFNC
# Assay: Topo II cleavage reaction
# Type: biochemical
# Settings: up to 10 μM
# Procedure: FIGS. 5, A-B. Effect of A-62176 (I in FIG. 2) on DNA cleavage by topo II in the presence of ATP. (A) Autoradiogram of a 12% denaturing polyacrylamide gel showing topo II-mediated cleavage pattern in the presence of A-62176. The cleavage reaction was done in a reaction buffer containing 10 mM imidazole-HCl (pH 6.0), 10 mM MgCl2, 50 mM KCl, and 1 mM ATP, as described in the Materials and Methods section. Lanes 1-7 contain 20 units of Drosophila topo II. Lane 1 contains no drug. Lanes 2-7 contain 0.2, 0.5, 1, 2, 5 and 10 μM of A-62176, respectively. (B) Topo II cleavage products indicated by arrows in (A) were quantitated using a PhosphorImager and analyzed using ImageQuanNT software (Molecular Dynamics). The intensity of the topo II-mediated cleavage was determined from the volume of the bands [indicated by arrows in (A)] normalized by the total radioactivity in each lane.
# 5′^32P-labeled DNA was incubated with Drosophila topo II in 20 μl of a reaction buffer [10 mM imidazole-HCl (pH 6.0), 10 mM MgCl2, 50 mM KCl, and 1 mM ATP] at 30° C. for 10 min in the presence of various amounts of A-62176. Reactions were terminated by adding SDS to 1%, and topo II was removed by proteinase K digestion (100 μg/ml) at 42° C. for 1 hr followed by phenol/chloroform extraction and ethanol precipitation.
smiles,measurement,value
"N[C@H]1CCN(c2c(F)cc3c(=O)c(C(=O)O)cn4c3c2Oc2ccccc2-4)C1 [Compound A-62176, 1-(3-aminopyrrolidin-1-yl)-2-fluoro-4-oxo-4H-quino[2,3,4-i,j][1,4]benzoxazine-5-carboxylic acid, reference compound]",topo II-mediated cleavage,enhance
